Experimental data as given in ChEMBL document CHEMBL5126547, “Inhibition of the drug efflux activity of Ptch1 as a promising strategy to overcome chemotherapy resistance in cancer cells” (Eur J Med Chem, 2022).

What was measured:
[1] = Metabolic stability in rat liver microsomes assessed as half life; type: ADME, Microsome
[2] = Lipophilicity, logD of compound; type: physicochemical; conditions: octanol/water
[3] = molecular target: T1, Protein patched homolog 1 (Homo sapiens) (UniProt Q13635); experiment: Inhibition of Ptch1 in human adrenocortical carcinoma cells assessed as fold increase doxorubicin cytotoxicity; type: cell-based; conditions: Adrenocortical carcinoma cell
T1 sequence (whole entry): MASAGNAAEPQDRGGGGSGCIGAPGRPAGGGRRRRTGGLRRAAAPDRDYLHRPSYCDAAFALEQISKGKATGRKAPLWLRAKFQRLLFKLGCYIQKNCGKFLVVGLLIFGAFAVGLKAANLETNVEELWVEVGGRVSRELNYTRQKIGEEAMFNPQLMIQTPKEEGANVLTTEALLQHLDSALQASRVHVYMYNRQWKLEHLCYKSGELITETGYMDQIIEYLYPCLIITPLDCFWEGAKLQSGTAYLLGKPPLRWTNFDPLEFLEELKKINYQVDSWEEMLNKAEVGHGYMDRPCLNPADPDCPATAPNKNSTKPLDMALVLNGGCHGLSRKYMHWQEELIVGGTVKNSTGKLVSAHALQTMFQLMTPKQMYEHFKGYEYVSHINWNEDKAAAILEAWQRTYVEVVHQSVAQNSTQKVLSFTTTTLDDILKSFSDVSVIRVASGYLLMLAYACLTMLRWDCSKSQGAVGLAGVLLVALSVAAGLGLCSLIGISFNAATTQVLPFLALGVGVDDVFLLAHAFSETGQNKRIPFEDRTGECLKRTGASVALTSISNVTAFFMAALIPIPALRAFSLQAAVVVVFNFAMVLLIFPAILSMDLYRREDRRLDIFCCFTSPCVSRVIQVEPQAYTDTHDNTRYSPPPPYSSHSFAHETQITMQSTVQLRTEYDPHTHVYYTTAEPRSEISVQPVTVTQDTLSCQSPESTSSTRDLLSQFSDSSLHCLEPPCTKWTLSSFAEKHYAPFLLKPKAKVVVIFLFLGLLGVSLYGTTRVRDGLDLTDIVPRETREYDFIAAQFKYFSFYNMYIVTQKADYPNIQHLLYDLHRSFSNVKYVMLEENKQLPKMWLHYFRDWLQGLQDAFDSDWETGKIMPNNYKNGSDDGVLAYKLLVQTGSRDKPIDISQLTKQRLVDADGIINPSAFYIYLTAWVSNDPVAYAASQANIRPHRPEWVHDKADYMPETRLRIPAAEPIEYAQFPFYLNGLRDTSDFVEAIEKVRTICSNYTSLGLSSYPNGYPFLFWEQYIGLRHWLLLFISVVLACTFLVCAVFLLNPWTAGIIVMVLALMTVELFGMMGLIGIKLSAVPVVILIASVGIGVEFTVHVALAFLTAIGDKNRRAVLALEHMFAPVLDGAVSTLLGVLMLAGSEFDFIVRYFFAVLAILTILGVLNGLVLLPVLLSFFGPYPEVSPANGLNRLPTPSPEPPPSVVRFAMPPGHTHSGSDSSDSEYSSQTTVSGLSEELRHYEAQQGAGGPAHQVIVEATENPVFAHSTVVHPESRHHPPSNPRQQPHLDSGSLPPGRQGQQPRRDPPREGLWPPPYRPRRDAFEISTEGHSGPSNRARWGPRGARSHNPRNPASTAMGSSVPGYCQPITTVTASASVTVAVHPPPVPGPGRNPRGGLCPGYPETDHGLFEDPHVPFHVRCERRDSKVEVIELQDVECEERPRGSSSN

[4] = molecular target: T1, Protein patched homolog 1 (Homo sapiens); experiment: Inhibition of Ptch1 in human Melanoma cells assessed as fold increase doxorubicin cytotoxicity; type: cell-based; conditions: Melanoma cell
[5] = In vivo inhibition of Ptch1 in vemurafenib-resistant human A-375 BRAF V600E cells xenografted in Nu/Nu NMRI mouse assessed as fold increase in vemurafenib anticancer activity at 5 mg/kg, ip administered 5 days a week measured on after 23 days of first treatment relative to control; type: functional; conditions: time 5 day
[6] = Inhibition of Ptch1 in vemurafenib-resistant human A-375 BRAF V600E cells assessed as fold increase in doxorubicin cytotoxicity
[7] = molecular target: T1, Protein patched homolog 1 (Homo sapiens); experiment: Inhibition of Ptch1 in human Melanoma cells assessed as fold increase cisplatin cytotoxicity; type: cell-based; conditions: Melanoma cell
[8] = molecular target: T1, Protein patched homolog 1 (Homo sapiens); experiment: Inhibition of Ptch1 in human Melanoma cells assessed as fold increase vemurafenib cytotoxicity; type: cell-based; conditions: Melanoma cell
[9] = Inhibition of Ptch1 in vemurafenib-resistant human A-375 BRAF V600E cells assessed as fold increase in cisplatin cytotoxicity

## COc1ccc(CCN2CCC(Nc3nc4ccccc4n3Cc3ccc(F)cc3)CC2)cc1 [ASTEMIZOLE]
[1]
  half-life: > 60 min
[2]
  logD: 2.9
[3]
  fold change (FC): 10

## CSc1ccc2c(c1)C(N1CCN(C)CC1)Cc1ccccc1S2 (stereo unspecified) [METITEPINE]
[4]
  fold change (FC): 5.8
[5]
  fold change (FC): 10
[1]
  half-life: 31 min
[6]
  fold change (FC): 15
[7]
  fold change (FC): 3
[8]
  fold change (FC): 4
[9]
  fold change (FC): 3.6
[2]
  logD: 3.5
[3]
  fold change (FC): 6.6

## COc1cc(C)c(CC/C(C)=C/Cc2cc(O)ccc2O)c(C)c1C [PANICEIN A HYDROQUINONE]
[5]
  fold change (FC): 10
[1]
  half-life: 1 min
[6]
  fold change (FC): 68
[3]
  fold change (FC): 128
